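Five compound concentrations were applied to cells in 96-well plates for 48 hours; endpoints were derived by simple linear interpolation of the resulting dose-response curve. Here, GI50 denotes the concentration required for 50% inhibition of growth. TGI denotes the concentration required for complete inhibition of growth.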
Legend:
Experiment in all cases: NCI tumour cell line growth inhibition, 48 h
[1] = system: HCT-116 colon
[2] = system: SF-539 CNS
[3] = system: SN12C renal
[4] = system: HL-60(TB) leukemia
[5] = system: MDA-MB-231 breast
[6] = system: SW-620 colon
[7] = system: OVCAR-4 ovarian
[8] = system: NCI-H460 lung
[9] = system: OVCAR-3 ovarian
[10] = system: RPMI-8226 leukemia
[11] = system: SNB-19 CNS

Question: What does the source list for `CCCCn1c2c(n(CCCC)c1=S)-c1c(n(CCCC)c(=S)n1CCCC)SSc1c(n(CCCC)c(=S)n1CCCC)-c1c(n(CCCC)c(=S)n1CCCC)SSc1c(n(CCCC)c(=S)n1CCCC)-c1c(n(CCCC)c(=S)n1CCCC)SS2`?
Answer: TGI [1]: > 27.7 µM; TGI [2]: > 50 µM; TGI [3]: > 50 µM; TGI [4]: 4.46 µM; TGI [5]: 8.67 µM; TGI [6]: > 14.8 µM; TGI [7]: > 19.7 µM; TGI [8]: > 50 µM; TGI [9]: 14.6 µM; TGI [10]: > 50 µM; TGI [11]: > 50 µM

Question: Which TGI [1] does the source give for `COC(=O)C1(C)C=CC(=O)C2(C)C1C(O)C1OC3CC(c4ccoc4)C(C)=C3C1(C)C2CC(=O)O` (stereo unspecified) here?
Answer: > 100 µM

Question: And the TGI [2]?
Answer: > 100 µM

Question: What about the TGI [3] of the same molecule?
Answer: > 100 µM

Question: What about the TGI [4] of the same molecule?
Answer: > 100 µM

Question: What about the TGI [5] of the same molecule?
Answer: > 100 µM

Question: And the TGI [6]?
Answer: > 100 µM

Question: And the TGI [7]?
Answer: > 100 µM

Question: And the TGI [8]?
Answer: > 100 µM

Question: And the TGI [9]?
Answer: > 100 µM

Question: And the TGI [10]?
Answer: > 100 µM

Question: What about the TGI [11] of the same molecule?
Answer: > 100 µM

Question: Which TGI [1] does the source give for `C/C(=N\NC(=S)NCCCNC(=S)N/N=C(\C)c1ccccn1)c1ccccn1` here?
Answer: 24 µM

Question: And the TGI [2]?
Answer: 8.72 µM

Question: And the TGI [3]?
Answer: 11.2 µM

Question: And the TGI [4]?
Answer: > 30.2 µM

Question: What about the TGI [5] of the same molecule?
Answer: > 49.9 µM

Question: What about the TGI [6] of the same molecule?
Answer: > 100 µM

Question: And the TGI [7]?
Answer: > 54 µM

Question: What about the TGI [8] of the same molecule?
Answer: 10.1 µM

Question: What about the TGI [9] of the same molecule?
Answer: 20.7 µM

Question: What about the TGI [10] of the same molecule?
Answer: > 100 µM

Question: And the TGI [11]?
Answer: > 69.7 µM

Question: How did the TGI [1] turn out when `Cc1ccccc1S(=O)(=O)Nn1cnc2ccc(S(=O)(=O)Nc3ccc(Cl)cc3)cc2c1=O` was run?
Answer: > 100 µM

Question: And the TGI [2]?
Answer: > 100 µM

Question: What about the TGI [3] of the same molecule?
Answer: > 100 µM

Question: What about the TGI [4] of the same molecule?
Answer: > 100 µM

Question: What about the TGI [5] of the same molecule?
Answer: > 100 µM

Question: What about the TGI [6] of the same molecule?
Answer: > 100 µM

Question: What about the TGI [7] of the same molecule?
Answer: > 100 µM

Question: What about the TGI [8] of the same molecule?
Answer: > 100 µM

Question: And the TGI [9]?
Answer: > 100 µM

Question: What about the TGI [10] of the same molecule?
Answer: > 100 µM

Question: And the TGI [11]?
Answer: > 100 µM

Question: Which results are given for `CO/N=C(\C)CCC#Cc1ccccc1C(=O)OC`?
Answer: TGI [1]: > 10 µM; TGI [2]: > 10 µM; TGI [3]: > 10 µM; TGI [4]: > 10 µM; TGI [5]: > 10 µM; TGI [6]: > 10 µM; TGI [7]: > 10 µM; TGI [8]: > 10 µM; TGI [9]: > 10 µM; TGI [10]: > 10 µM; TGI [11]: > 10 µM

Question: For `N#Cc1cnc(N)nc1NCC1(CO)CC(CCc2ccccc2)C1` (stereo unspecified), which TGI [1] is on record?
Answer: > 100 µM

Question: What about the TGI [2] of the same molecule?
Answer: > 100 µM

Question: What about the TGI [3] of the same molecule?
Answer: > 100 µM

Question: What about the TGI [4] of the same molecule?
Answer: > 100 µM

Question: And the TGI [5]?
Answer: > 100 µM

Question: What about the TGI [6] of the same molecule?
Answer: > 100 µM

Question: And the TGI [7]?
Answer: > 100 µM

Question: And the TGI [8]?
Answer: > 100 µM

Question: And the TGI [9]?
Answer: > 100 µM

Question: What about the TGI [10] of the same molecule?
Answer: > 100 µM

Question: What about the TGI [11] of the same molecule?
Answer: > 100 µM

Question: For `O=C(NCCCCCCNC(=O)c1cc(-c2ccccc2)nc2ccccc12)c1cc(-c2ccccc2)nc2ccccc12`, which TGI [1] is on record?
Answer: > 100 µM

Question: And the TGI [2]?
Answer: > 100 µM

Question: What about the TGI [3] of the same molecule?
Answer: > 100 µM

Question: And the TGI [4]?
Answer: > 100 µM

Question: What about the TGI [5] of the same molecule?
Answer: > 100 µM

Question: And the TGI [6]?
Answer: > 100 µM

Question: What about the TGI [7] of the same molecule?
Answer: > 100 µM

Question: What about the TGI [8] of the same molecule?
Answer: > 100 µM

Question: And the TGI [9]?
Answer: > 100 µM

Question: What about the TGI [10] of the same molecule?
Answer: > 100 µM

Question: What about the TGI [11] of the same molecule?
Answer: > 100 µM

Question: `Cc1cc(S(=O)(=O)Nc2nc3ccccc3c(=O)n2N)c(S)cc1Cl` was tested. Which TGI [1] did it give?
Answer: > 100 µM

Question: What about the TGI [2] of the same molecule?
Answer: > 100 µM

Question: What about the TGI [3] of the same molecule?
Answer: > 100 µM

Question: And the TGI [4]?
Answer: > 100 µM

Question: And the TGI [5]?
Answer: > 100 µM

Question: What about the TGI [6] of the same molecule?
Answer: > 100 µM

Question: What about the TGI [7] of the same molecule?
Answer: > 100 µM

Question: And the TGI [8]?
Answer: > 100 µM

Question: What about the TGI [9] of the same molecule?
Answer: > 100 µM

Question: And the TGI [10]?
Answer: > 100 µM

Question: And the GI50 [11]?
Answer: 15.7 µM

Question: And the TGI [11]?
Answer: 47.2 µM

Question: Which TGI [1] does the source give for `CCCCCCCCCCNC(=O)CCC(NC(=O)c1ccc(N(C)Cc2cnc3nc(N)nc(N)c3n2)cc1)C(=O)NCCCCCCCCCC` (stereo unspecified) here?
Answer: 14 µM

Question: And the TGI [2]?
Answer: 15.3 µM

Question: And the TGI [3]?
Answer: > 57.2 µM

Question: And the TGI [4]?
Answer: > 25.3 µM

Question: What about the TGI [5] of the same molecule?
Answer: 11.3 µM

Question: And the TGI [6]?
Answer: 13.5 µM

Question: And the TGI [7]?
Answer: > 45.4 µM

Question: And the TGI [8]?
Answer: 13.1 µM

Question: And the TGI [9]?
Answer: 26.8 µM

Question: What about the TGI [10] of the same molecule?
Answer: > 70.4 µM

Question: What about the TGI [11] of the same molecule?
Answer: 31.7 µM

Question: With `Nc1onc2c1Cc1c(noc1N)-c1ccccc1-2` as the molecule, how does the TGI [1] read?
Answer: > 100 µM

Question: And the TGI [2]?
Answer: > 100 µM

Question: And the TGI [3]?
Answer: > 100 µM

Question: What about the TGI [4] of the same molecule?
Answer: 49.7 µM

Question: And the TGI [5]?
Answer: > 100 µM

Question: And the TGI [6]?
Answer: > 100 µM

Question: And the TGI [7]?
Answer: > 100 µM

Question: What about the TGI [8] of the same molecule?
Answer: > 100 µM

Question: What about the TGI [9] of the same molecule?
Answer: > 100 µM

Question: And the TGI [10]?
Answer: > 100 µM

Question: What about the TGI [11] of the same molecule?
Answer: > 100 µM

Question: Which results are given for `C=C(Br)CNC(=O)CCC(=O)NCC(=C)Br`?
Answer: TGI [1]: > 100 µM; TGI [2]: > 100 µM; TGI [3]: > 100 µM; TGI [4]: > 100 µM; TGI [5]: > 100 µM; TGI [6]: > 100 µM; TGI [7]: > 100 µM; TGI [8]: > 100 µM; TGI [9]: > 100 µM; TGI [10]: > 100 µM; TGI [11]: > 100 µM

Question: How did the TGI [1] turn out when `CC(=O)Nc1ccc(C2SCc3nc4ccccc4n32)cc1` (stereo unspecified) was run?
Answer: > 100 µM

Question: And the TGI [2]?
Answer: > 100 µM

Question: And the TGI [3]?
Answer: > 100 µM

Question: And the TGI [4]?
Answer: > 100 µM

Question: What about the TGI [5] of the same molecule?
Answer: > 100 µM

Question: And the TGI [6]?
Answer: > 100 µM

Question: And the TGI [7]?
Answer: > 100 µM

Question: What about the TGI [8] of the same molecule?
Answer: > 100 µM

Question: And the TGI [9]?
Answer: > 100 µM

Question: What about the TGI [10] of the same molecule?
Answer: > 100 µM

Question: And the TGI [11]?
Answer: > 100 µM

Question: Which results are given for `Cn1c2ccccc2c(=O)c2cccc(C(=O)NC(CCC(N)=O)C(=O)O)c21` (stereo unspecified)?
Answer: TGI [1]: > 100 µM; TGI [2]: > 100 µM; TGI [3]: > 100 µM; TGI [4]: 0.678 µM; TGI [5]: > 100 µM; TGI [6]: > 100 µM; TGI [7]: > 100 µM; TGI [8]: > 100 µM; TGI [9]: > 100 µM; TGI [10]: > 100 µM; TGI [11]: > 100 µM

Question: What does the source list for `CC(=O)Nc1c(C)cc2c(nc3n2CCC3O)c1[N+](=O)[O-]` (stereo unspecified)?
Answer: TGI [1]: > 100 µM; TGI [2]: > 100 µM; TGI [3]: > 100 µM; TGI [4]: > 100 µM; TGI [5]: > 100 µM; TGI [6]: > 100 µM; TGI [7]: > 100 µM; TGI [8]: > 100 µM; TGI [9]: > 100 µM; TGI [10]: > 100 µM; TGI [11]: > 100 µM

Question: `CCOC(=O)C(SCCO)C(C(=O)OCC)n1ccc(=O)[nH]c1=O` (stereo unspecified) was tested. Which TGI [1] did it give?
Answer: > 57.4 µM

Question: And the TGI [2]?
Answer: > 71.6 µM

Question: What about the TGI [3] of the same molecule?
Answer: > 100 µM

Question: And the TGI [4]?
Answer: 12 µM

Question: And the TGI [5]?
Answer: > 82.2 µM

Question: What about the TGI [6] of the same molecule?
Answer: 46.8 µM

Question: And the TGI [7]?
Answer: > 86.5 µM

Question: And the TGI [8]?
Answer: > 100 µM

Question: What about the TGI [9] of the same molecule?
Answer: 72.7 µM

Question: And the TGI [10]?
Answer: 47.8 µM

Question: And the TGI [11]?
Answer: > 100 µM
